Measurements taken from PubChem BioAssay AID1259411 (Chemical Carcinogenesis Research Information System (CCRIS), 2018).
Activity calls are given as the source filed them. How the calls were made is not given here.

Tested on: rodent carcinogenicity bioassays, tumor incidence
Test: CCRIS carcinogenicity studies
Details: Dose: 0, Dose: 0
Summary of the method: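 Archive of carcinogenicity, mutagenicity, tumor promotion and tumor inhibition results drawn from journals, NCI reports and other sources, expert-reviewed; covers 1985-2011 and is no longer updated.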

`C=CC(=C)C` was tested, and the carcinogen call (Species: MOUSE, Strain/Sex: B6C3F1/MALE, Route: INHALATION, 10, 70, 280, 700, 2200 PPM 8 HR/D 5 D/WK FOR 80 WK (STUDY DURATION: 104 WK), 10, 70, 280, 700, 2200 PPM 8 HR/D 5 D/WK FOR 80 WK (STUDY DURATION: 104 WK), Tumor Site: Type of Lesion: LUNG: ALVEOLAR/BRONCHIOLAR ADENOMA OR CARCINOMA, LIVER: HEPATOCELLULAR ADENOMA OR CARCINOMA, HARDERIAN GLAND: ADENOMA, Tumor Site: Type of Lesion: LUNG: ALVEOLAR/BRONCHIOLAR ADENOMA OR CARCINOMA, LIVER: HEPATOCELLULAR ADENOMA OR CARCINOMA, HARDERIAN GLAND: ADENOMA) was “active; positive”, the carcinogen call (Species: MOUSE, Strain/Sex: B6C3F1/MALE, Route: INHALATION, 70, 140, 2200 PPM 8 HR/D 5 D/WK FOR 40 WK (STUDY DURATION: 104 WK), 70, 140, 2200 PPM 8 HR/D 5 D/WK FOR 40 WK (STUDY DURATION: 104 WK), Tumor Site: Type of Lesion: LUNG: ALVEOLAR/BRONCHIOLAR ADENOMA OR CARCINOMA, LIVER: HEPATOCELLULAR ADENOMA OR CARCINOMA, HARDERIAN GLAND: ADENOMA, Tumor Site: Type of Lesion: LUNG: ALVEOLAR/BRONCHIOLAR ADENOMA OR CARCINOMA, LIVER: HEPATOCELLULAR ADENOMA OR CARCINOMA, HARDERIAN GLAND: ADENOMA) was “active; positive” and the carcinogen call (Species: MOUSE, Strain/Sex: B6C3F1/MALE, Route: INHALATION, 70, 220, 700, 2200, 7000 PPM 6 HR/D 5 D/WK FOR 26 WK FOLLOWED BY A 26-WK RECOVERY PERIOD (STUDY DURATION: 52 WK), 70, 220, 700, 2200, 7000 PPM 6 HR/D 5 D/WK FOR 26 WK FOLLOWED BY A 26-WK RECOVERY PERIOD (STUDY DURATION: 52 WK), Tumor Site: Type of Lesion: LIVER: ADENOMA OR CARCINOMA, LUNG: ALVEOLAR/BRONCHIOLAR ADENOMA OR CARCINOMA, FORESTOMACH: PAPILLOMA OR CARCINOMA, HARDE, Tumor Site: Type of Lesion: LIVER: ADENOMA OR CARCINOMA, LUNG: ALVEOLAR/BRONCHIOLAR ADENOMA OR CARCINOMA, FORESTOMACH: PAPILLOMA OR CARCINOMA, HARDE) was “active; positive”. For the same molecule, the carcinogen call (Species: MOUSE, Strain/Sex: B6C3F1/MALE, Route: INHALATION, 280 PPM 8 HR/D 5 D/WK FOR 20 WK (STUDY DURATION: 104 WK), Tumor Site: Type of Lesion: HARDERIAN GLAND: ADENOMA, LIVER: ADENOMA) was “active; positive”, the carcinogen call (Species: MOUSE, Strain/Sex: B6C3F1/MALE, Route: INHALATION, 2200 PPM 4 HR/D 5 D/WK FOR 20 WK (STUDY DURATION: 104 WK), Tumor Site: Type of Lesion: HARDERIAN GLAND: ADENOMA, LIVER: HEPATOCELLULAR ADENOMA OR CARCINOMA) was “active; positive” and the carcinogen call (Species: MOUSE, Strain/Sex: B6C3F1/MALE, Route: INHALATION, 2200 PPM 4 HR/D 5 D/WK FOR 80 WK (STUDY DURATION: 104 WK), Tumor Site: Type of Lesion: LIVER: HEPATOCELLULAR ADENOMA OR CARCINOMA, HARDERIAN GLAND: ADENOMA) was “active; positive”. For the same molecule, the carcinogen call (Species: RAT, Strain/Sex: F344/N/FEMALE, Route: INHALATION, 220, 700, 7000 PPM 6 HR/D 5 D/WK FOR 105 WK (STUDY DURATION: 105 WK), 220, 700, 7000 PPM 6 HR/D 5 D/WK FOR 105 WK (STUDY DURATION: 105 WK), Tumor Site: Type of Lesion: MAMMARY GLAND: FIBROADENOMA) was “active; positive” and the carcinogen call (Species: RAT, Strain/Sex: F344/N/MALE, Route: INHALATION, 220, 700, 7000 PPM 6 HR/D 5 D/WK FOR 105 WK (STUDY DURATION: 105 WK), 220, 700, 7000 PPM 6 HR/D 5 D/WK FOR 105 WK (STUDY DURATION: 105 WK), Tumor Site: Type of Lesion: KIDNEY: ADENOMA OR CARCINOMA, MAMMARY GLAND: FIBROADENOMA OR CARCINOMA, TESTES: ADENOMA, Tumor Site: Type of Lesion: KIDNEY: ADENOMA OR CARCINOMA, MAMMARY GLAND: FIBROADENOMA OR CARCINOMA, TESTES: ADENOMA) was “active; positive”.

In the case of `COC(=O)[C@H]1[C@H]2C[C@@H]3c4[nH]c5cc(OC)ccc5c4CCN3C[C@H]2C[C@@H](OC(=O)c2cc(OC)c(OC)c(OC)c2)[C@@H]1OC`, the carcinogen call (Species: MOUSE, Strain/Sex: B6C3F1/FEMALE, Route: ORAL, 5, 10 PPM IN DIET FOR 103 WK (STUDY DURATION: 105 WK), 5, 10 PPM IN DIET FOR 103 WK (STUDY DURATION: 105 WK), Tumor Site: Type of Lesion: MAMMARY GLAND: MALIGNANT TUMOR) is reported as “active; positive”, the carcinogen call (Species: MOUSE, Strain/Sex: B6C3F1/MALE, Route: ORAL, 5, 10 PPM IN DIET FOR 103 WK (STUDY DURATION: 105 WK), 5, 10 PPM IN DIET FOR 103 WK (STUDY DURATION: 105 WK), Tumor Site: Type of Lesion: SEMINAL VESICLES: CARCINOMA) is reported as “active; positive” and the carcinogen call (Species: RAT, Strain/Sex: F344/FEMALE, Route: ORAL, 5, 10 PPM IN DIET FOR 103 WK (STUDY DURATION: 105 WK), 5, 10 PPM IN DIET FOR 103 WK (STUDY DURATION: 105 WK)) is reported as “inactive; negative”. The carcinogen call (Species: RAT, Strain/Sex: F344/MALE, Route: ORAL, 5, 10 PPM IN DIET FOR 103 WK (STUDY DURATION: 105 WK), 5, 10 PPM IN DIET FOR 103 WK (STUDY DURATION: 105 WK), Tumor Site: Type of Lesion: ADRENAL GLAND: MALIGNANT PHEOCHROMOCYTOMA OR PHEOCHROMOCYTOMA) was “active; positive”.

For `COP(=S)(OC)SCn1nnc2ccccc2c1=O`, the carcinogen call (Species: MOUSE, Strain/Sex: B6C3F1/FEMALE, Route: ORAL, 62.5, 125 PPM IN DIET FOR 80 WK (STUDY DURATION: 92-93 WK), 62.5, 125 PPM IN DIET FOR 80 WK (STUDY DURATION: 92-93 WK)) was “inactive; negative”, the carcinogen call (Species: MOUSE, Strain/Sex: B6C3F1/MALE, Route: ORAL, 31.3, 62.5 PPM IN DIET FOR 80 WK (STUDY DURATION: 92-93 WK), 31.3, 62.5 PPM IN DIET FOR 80 WK (STUDY DURATION: 92-93 WK)) was “inactive; negative” and the carcinogen call (Species: RAT, Strain/Sex: OSBORNE-MENDEL/FEMALE, Route: ORAL, 62.5, 125 PPM IN DIET FOR 80 WK (STUDY DURATION: 114-115 WK), 62.5, 125 PPM IN DIET FOR 80 WK (STUDY DURATION: 114-115 WK)) was “inactive; negative”. For the same molecule, the carcinogen call (Species: RAT, Strain/Sex: OSBORNE-MENDEL/MALE, Route: ORAL, 78, 156 PPM IN DIET FOR 80 WK (STUDY DURATION: 114-115 WK), 78, 156 PPM IN DIET FOR 80 WK (STUDY DURATION: 114-115 WK), Tumor Site: Type of Lesion: THYROID GLAND: TUMOR, PANCREAS: ISLET CELL ADENOMA OR CARCINOMA) was “equivocal”, the carcinogen call (Species: Rat, Strain/Sex: Wistar/Female, Route: Oral, 15, 45 ppm (vehicle= 1% DAB8 peanut oil) in feed for 24 mo., 15, 45 ppm (vehicle= 1% DAB8 peanut oil) in feed for 24 mo.) was “inactive; negative; purity = 87.2%” and the carcinogen call (Species: Rat, Strain/Sex: Wistar/Male, Route: Oral, 15, 45 ppm (vehicle= 1% DAB8 peanut oil) in feed for 24 mo., 15, 45 ppm (vehicle= 1% DAB8 peanut oil) in feed for 24 mo.) was “inactive; negative; purity = 87.2%”.
